Reference: US20130096107A1, “USE OF AMINODIHYDROTHIAZINES FOR THE TREATMENT OR PREVENTION OF DIABETES” (Hoffmann-La Roche Inc., priority 2009, published 2013)
Entries after “also recorded” stand apart in the source; their conditions may differ.

Key:
[1] = system: BACE2 (Tmem27 cleavage) in isolated human pancreatic islets; conditions: 200 nM, 72 h, islets from two human donors
Protocol: Freshly isolated human islets from two different donors (male, 51 years, BMI: 27.5 kg/m2; […], BMI: 22.2 kg/m2; circa 3000 islets per donor) were obtained from Dr. D. Bosco (Cell Isolation and Transplantation Center, Department of Surgery, Geneva, Switzerland) and maintained in CMRL-1066 (Invitrogen) at 5.6 mmol/l glucose supplemented with 10% FCS, 100 U/ml penicillin, 100 μg/ml streptomycin and 100 μg/ml gentamycin (Sigma) for 2 days before experiments. The present investigation was approved by the institutional ethics committee. […] Islets were collected by centrifugation and total proteins were extracted using CELYA lysis buffer CLB1 (Cat*9000, Zeptosens) following the manufacturer's protocol.
Total islet proteins (10 μg) were fractionated by NuPAGE 4-12% Bis-TrisGel (Cat*NP0321Box, Invitrogen) and transferred to nitrocellulose using iBlot system (Cat*IB3010-01, Invitrogen).

[2] = system: Zucker Diabetic Fatty (ZDF) rats; assay: Oral glucose tolerance test (oGTT) after chronic treatment of ZDF rats; type: in vivo, rat
Protocol: This study was conducted with male ZDF rats [ZDF/gmiCrl fa/fa] and lean rats [ZDF/gmiCrl fa/+] (Charles River Laboratories, Sulzfeld, Germany). The ZDF rats are a commonly used model of human type 2 diabetes characterized by insulin resistance, β-cell defects and hyperglycemia. Onset of diabetes in males is at the age of 8 to 10 weeks when fed a diabetogenic diet. All rats (ZDF and Lean rats) with an age of 6 weeks at the beginning of the experiment are fed a special diet (“PURINA PMI 5008”, ZDF_diet=Ssniff R/M−H) and housed 1 per cage (type 3). Ambient temperature is approximately 21° C. and relative humidity 55-65%. A 12 hours light-dark cycle is maintained in the rooms with all tests being performed during the light phase. Access to food and tap water is ad libitum.
(§1) Body weight and food intake were monitored daily. Blood glucose was measured weekly in all rats. After 3 weeks of treatment an oGTT was performed on 6 overnight fasted rats per groups. At about week 4 and after anesthesia, 2 to 3 ZDF rats per day and per group underwent pancreas surgery and in-situ pancreas perfusion with low/high glucose conditions. 120 eluted fractions per rat were collected for glucose and insulin quantification.
An oGTT was conducted on day 18 of treatment. After on overnight fast of approximately 16 h post treatment, rats were given a glucose load of 2 g/kg by gavage. Blood samples were collected immediately prior to glucose challenge (0 min) and +10, +30, +60 and +120 min after glucose challenge and blood glucose and other plasma parameters were determined.
Blood glucose was measured with a blood glucose monitoring system (Accu-Chek Aviva, Roche Diagnostics GmbH, Rotkreuz, Switzerland). Insulin was measured by ELISA, using the Mercodia Rat Insulin ELISA (Mercodia AB, Uppsala, Sweden).
Data were analyzed using the software SAS/JMP for Windows (version 6.0.0, SAS Institute Inc., Cary, N.C.). Data were expressed as mean±SEM (standard error of the mean). The number of rats was 6 per group. Comparison was made versus Vehicle, using Analysis of Variance ANOVA followed by post hoc Dunnett's test.

pancreas of ZDF rats = assay: Assessment of β-cell function by in situ pancreas perfusion (glucose-stimulated insulin secretion); type: in vivo, rat
Protocol: as §1
Rats were anesthetized (Temgesic (0.1 ml/100 g) first, then anesthetic cocktail: Ketamine (77 mg/kg), Xylazine (11 mg/kg), i.p. injection, volume 2 ml/kg). Pancreas was surgically isolated from other connecting organs and from nerves and veins and artery afferences and efferences, keeping access to abdominal aorta and portal vein which are both cannulated. Once surgery was done, rats were placed into a temperature controlled box (37° C.) and pancreata were connected to infusion pumps via abdominal aorta.
The glucose-stimulated insulin secretion (GSIS) was obtained by perfusing pancreata with Krebs-Ringer buffer containing low/high glucose concentration as described into protocol designed in FIG. 7. Basically, pancreata were first perfused with freshly prepared Krebs-Ringer solution (5 ml/min) containing low glucose concentration (2.8 mM) for about 30 minutes, stabilizing basal insulin secretion. Then, the first stimulation with high glucose concentration solution (16.7 mM) was given to sensitize the pancreata, leading to modest phase 1 and phase 2 insulin secretion.
Pancreas elution fractions were collected in 96-well plates (via a catheter introduced into the portal vein) at regular time intervals and immediately cooled down to 4° C. and subsequently stored at −20° C. until analyzed. At least, 120 eluted fractions per rat were collected for measurement of glucose and insulin levels.

How did the “full-length TMEM27 (immunoblot)” value [1] turn out when `C[C@@]1(c2cc(NC(=O)c3ccc(Cl)cn3)ccc2F)CCSC(N)=N1` (single isomer, unassigned) [Example 1] was run?
The value was “stabilized the full length of TMEM27; also recorded: preservation of full-length TMEM 27”.

What about the “Insulin AUC (0-120 minutes) during oGTT” value ([2]; 8.5 week old ZDF rats treated 17 days, 0.2, 5, 30 mg/kg p.o.) of the same molecule?
The value was “dose-dependent increase in insulin levels without reaching significance”.

What about the fasting insulin levels ([2]; 8.5 week old ZDF rats treated 17 days, Example 1 p.o., Liraglutide 0.4 mg/kg s.c.) of the same molecule?
The fasting insulin levels was “did not change fasting insulin levels compared to vehicle”.

What about the “insulin levels during oGTT (post glucose challenge)” value ([2]; 8.5 week old ZDF rats treated 17 days, glucose 2 g/kg, Example 1 0.2, 5, 30 mg/kg p.o., Liraglutide 0.4 mg/kg s.c.) of the same molecule?
Its value is “increased insulin levels (at peak and up to 60 minutes post glucose challenge); also recorded: dose-dependent increase in insulin levels secreted during oGTT”.

What about the “fasting blood glucose (FBG) after overnight fasting” value ([2]; 8.5 week old ZDF rats, Example 1 0.2-5-30 mg/kg p.o., Liraglutide 0.4 mg/kg s.c., 17 days) of the same molecule?
Its value is “trend to reduce fasting blood glucose after overnight fasting conditions (FBG) without reaching significance”.

And the “efficacy in oGTT compared with Liraglutide” value ([2]; Example 1 30 mg/kg p.o. versus Liraglutide 0.4 mg/kg s.c., chronic treatment)?
Its value is “close to that induced by chronic treatment with Liraglutide”.

What about the post-challenged glucose levels ([2]; ZDF rats after 17 days of oral treatment (summary)) of the same molecule?
Its post-challenged glucose levels is “reduced post-challenged glucose levels”.

And the “improvement of glucose tolerance (blood glucose during oGTT)” value ([2]; ZDF rats, 30 mg/kg p.o. daily for 17 days, versus vehicle)?
Its value is “reached significance at 30′, 60′ and 120′ post glucose challenge”.

What about the “glucose area under the curve (AUC 0-120 minutes) during oGTT” value ([2]; ZDF rats, 0.2, 5, 30 mg/kg p.o. daily for 17 days, oGTT day 18, versus vehicle) of the same molecule?
Its value is “dose-dependently reduced; also recorded: dose dependent reduction of glucose AUC reaching significant values at 30 mg/kg”.

And the “AUC off-response of insulin secretion (perfused pancreas)” value (pancreas of ZDF rats; 30 mg/kg, 3 to 4 weeks of treatment, after high glucose 16.7 mM, versus vehicle)?
Its value is “reduced”.

And the “basal insulin secretion (perfused pancreas)” value (pancreas of ZDF rats; 30 mg/kg, 3 to 4 weeks of treatment, low glucose 2.8 mM, versus vehicle)?
The value was “reduced”.

What about the “insulin secretion profile (Phase 1/Phase 2)” value (pancreas of ZDF rats; ZDF rats, chronic treatment, in situ pancreas perfusion) of the same molecule?
The value was “normalized the insulin secretion profile (Phase 1/Phase 2)”.
